Data from the NIST ThermoML archive (doi:10.1016/j.jct.2018.03.025).
Numbers after ± are expanded uncertainties.

Legend:
[1] = refractive index (Na D-line) (dimensionless); conditions: 298.2 K; 101.33 kPa; Liquid; Standard Abbe refractometry
[2] = 298.2 K; 101.33 kPa; Liquid; Vibrating tube method
[3] = wn = mass fraction of the nth substance listed; conditions: 298.2 K; 101.3 kPa; Liquid; Vibrating tube method; w1 = 0.85
[4] = refractive index (Na D-line) (dimensionless); wn = mass fraction of the nth substance listed; conditions: 298.2 K; 101.3 kPa; Liquid; Standard Abbe refractometry; w1 = 0.85

refractive index [1]	mass density [2] [kg/m3]	mass density [3] [kg/m3]	refractive index [4]	Compound
1.3991 ± 0.0011	872.02 ± 1.2	–	–	CCCCCOC(C)=O [pentyl ethanoate]
–	–	1682.7 ± 1.1	1.432 ± 0.001	O=P(O)(O)O [phosphoric acid] + O
1.383 ± 0.0011	882.26 ± 1.2	–	–	CCCOC(C)=O [propyl ethanoate]
1.3325 ± 0.001	–	–	–	O [water]
